Data on 59 compounds can be found in the METLIN SMRT retention time set (Domingo-Almenara et al. 2019).

The data set is described as follows: gradient 5% acetonitrile 3 min, to 50% in 2 min, to 85% in 15 min, held 3 min, 100 µL/min. The settings on record: column: Zorbax Extend-C18 2.1 x 50 mm; eluents: water / acetonitrile, 0.1% formic acid. Summed up: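 Over 3 months, pure standards in mixtures of ~100 molecules were run by HPLC coupled to a quadrupole time-of-flight mass spectrometer in positive and negative ionization mode. The column was a Zorbax Extend-C18 (2.1 × 50 mm, 1.8 μm) at 100 μL/min, eluted with water and acetonitrile each holding 0.1% formic acid, with 40 μL dead and 900 μL dwell volumes. Retention time was determined from adduct peaks chosen by software and checked manually.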
`Cc1cc(OCC(=O)Nc2cccc(Cl)c2)nc(N2CCN(c3ccccc3)CC2)n1`: the RP-LC retention time came out at 904 s.
In the case of `COc1ccc(NC(=O)c2cc(C)n3nc(-c4ccsc4)cc3n2)cc1` it was 1120 s; in that of `CCCn1ccc2sc(C)c(C(=O)N3CCN(c4ccc(F)cc4)CC3)c2c1=O`, 872 s; in that of `O=C(Nc1ccccc1)C1CC(=O)N(CCc2c[nH]c3ccc(Cl)cc23)C1` (centres undefined), 825 s.
As for `COc1cc(C2CC(=O)c3c(C)nc(N4CCN(C)CC4)nc3C2)cc(OC)c1OC` (centres undefined), the figure is 629 s; as for `CCOc1cc(=O)n2c(c1C(=O)Nc1cc(Cl)c(OC)cc1OC)CCCC2`, 758 s; as for `Cc1ccc(Nc2c(-c3cc(Br)ccc3F)nc3ccc(Cl)cn23)cc1`, 1080 s.
As for `Cc1ccc(CN2CCC(CNC(=O)Cn3c(=O)c(C)nc4cc(C)c(C)cc43)C2)cc1` (centres undefined), the figure is 638 s.
The compound `Cc1ccccc1Nc1c(-c2cccc(Cl)c2)nc2ncccn12` showed an RP-LC retention time of 901 s.
In the case of `CN(C)C(=O)c1cc2c(s1)CCC(C(=O)N1CCN(c3ccccc3)CC1)C2` (centres undefined) it was 735 s; in that of `COc1ccc(NC(=O)Cn2c(N3CCOCC3)nc(C)cc2=O)cc1F`, 644 s.
In the case of `COc1cn2c(cc1=O)C(=O)N(CCNC(=O)c1ccc(Br)o1)CC2` it was 556 s; in that of `COc1ccccc1CNC(=O)c1nc2cccnc2n(CC(C)C)c1=O`, 976 s; in that of `Cc1nc(-c2ccc(-c3noc(COc4ccc(F)cc4)n3)cc2)cs1`, 1160 s.
In the case of `CCCN1C(=O)c2c(C(=O)NCc3ccccc3F)ncn2CC1(C)C(=O)NCc1ccccc1` (centres undefined) it was 812 s.
Regarding `COC(=O)C1=C(C)NC(=O)NC1c1cn(-c2ccccc2)nc1-c1ccc(F)cc1` (centres undefined), the RP-LC retention time was found to be 857 s.
As for `CC1CCN(S(=O)(=O)c2nn(Cc3ccccn3)cc2C(=O)O)CC1`, the figure is 721 s; as for `O=C(CN1CCCCC1c1nc(-c2cccc(F)c2)no1)Nc1ccccc1F` (centres undefined), 1230 s.
In the case of `Cc1sc(C)c(S(=O)(=O)NCc2ccccc2)c1-c1cc(C(F)(F)F)on1` it was 1140 s.
As for `Cn1nc(N2CCCC(NC(=O)c3cccs3)C2)ccc1=O` (centres undefined), the figure is 627 s; as for `CCN1C(=O)c2cc(S(=O)(=O)Nc3cc(C)ccc3C)ccc2Oc2cccnc21`, 1100 s; as for `Cc1cccc(OCc2nc(C)c(C(=O)N3CCC(C(N)=O)CC3)s2)c1`, 962 s.
`COc1ccccc1C(=O)NC1(C(F)(F)F)C(=O)N(CC(C)C)C2=C1C(=O)CC(C)(C)C2` (centres undefined) yielded an RP-LC retention time of 1070 s.
As for `COc1ccc(F)cc1S(=O)(=O)N1CCC(OCc2noc(C3CCCO3)n2)CC1` (centres undefined), the figure is 870 s; as for `CCc1cccc(C)c1Nc1c(-c2ccccc2)nc2nc(C)cc(C)n12`, 816 s.
In the case of `COc1ccc(-c2nc(-c3ccc4oc(C)nc4c3)no2)cc1` it was 1090 s.
As for `c1cc(-c2nc(-c3ccc4c(c3)ncn4CCN3CCCCC3)no2)ccn1`, the figure is 581 s; as for `Cc1cc(F)ccc1NC(=O)c1nnn(-c2ccc(F)cc2)c1-c1cccnc1`, 915 s; as for `CC(=O)Nc1ccc(S(=O)(=O)NC2(c3nc(C4CC4)no3)CCCCC2)cc1Cl`, 813 s.
`CCOc1ccccc1NC(=O)N1CCC2(CC1)NC(=O)c1ccc(Cl)cc1N2` had an RP-LC retention time of 834 s.
In the case of `COc1cc(OC)cc(N2C=C(C#N)S(=O)(=O)c3c(F)cccc32)c1` it was 906 s; in that of `CCc1nc(-c2ccc(-c3noc(CNC(=O)c4ccccc4)n3)cc2)cs1`, 963 s.
As for `Cc1nc2cc(-c3noc(-c4ccc(C#N)cc4F)n3)ccc2o1`, the figure is 1000 s; as for `COc1cc(NC(=O)Cc2csc3nc(-c4cccc(Br)c4)cn23)cc(OC)c1`, 974 s.
As for `CCC(C)NC(=O)c1c(C)sc2ccn(C)c(=O)c12` (centres undefined), the figure is 654 s.
Take `COCCN1C(=O)CCc2cc(NS(=O)(=O)c3ccc(F)c(C)c3)ccc21`: the RP-LC retention time is 800 s.
As for `CCc1cc(C(=O)N2CCN(CC)CC2)nc2cc(-c3ccccn3)nn12`, the figure is 580 s; as for `COc1ccc(-c2csc(NC(=O)CCCc3nc(-c4ccccc4Cl)no3)n2)cc1`, 1080 s.
For the compound `O=C(NCc1ccco1)c1cccc(Nc2c(-c3ccccc3)nc3cnccn23)c1`, the RP-LC retention time was 756 s.
As for `CCC(=O)Nc1ccc(CCc2nc3ccc(C(=O)NCc4ccc5c(c4)OCO5)cc3[nH]2)cc1`, the figure is 644 s; as for `Cc1cc(=O)n(CC(=O)N2CCCc3ccccc32)c(N2CCOCC2)n1`, 687 s.
In the case of `COc1cc2c(cc1OC)CN(C(=O)C1CC(=O)N(c3n[nH]c4cccc(F)c34)C1)CC2` (centres undefined) it was 689 s; in that of `O=C(NCc1nc(-c2ccc(N3CCCCCC3)cc2)no1)c1ccco1`, 1020 s; in that of `COc1ccc(NC(=O)C2CC(=O)N(c3ccc4c(c3)CCN4C(C)=O)C2)cc1F` (centres undefined), 687 s.
In the case of `Cc1sc(-c2noc(C3CCC3)n2)cc1NC(=O)c1ccc(C(F)(F)F)cc1` it was 1150 s; in that of `O=C(CN1C(=O)c2ccccc2C1=O)N1CCc2ccccc2C1`, 755 s; in that of `CCNc1ncnc2sc3c(c12)CCN(Cc1ccncc1)C3`, 659 s.
For the compound `CCn1cc(S(=O)(=O)N2CCC(c3noc(COCC4CC4)n3)CC2)cn1`, the RP-LC retention time was 841 s.
As for `O=C(Nc1ccc2nncn2c1)Nc1ccccc1Cl`, the figure is 718 s; as for `CCc1noc(-c2ccnc(-n3cnc(C(=O)NC(C)C)c3)c2)n1`, 784 s; as for `CC(Oc1ccc(Cl)cc1)C(=O)NCC1CCOCC1` (centres undefined), 782 s.
In the case of `CCNC(=O)c1cc(-c2ccc(F)cc2)n[nH]1` it was 695 s.
`CCc1ccccc1NC(=O)Cc1c(C)nn(-c2nc(-c3ccccc3)cs2)c1C` had an RP-LC retention time of 704 s.
In the case of `CCCNC(=O)C1CCN(c2nc3ccc(-c4ccccc4F)nc3s2)CC1` it was 951 s.
As for `O=S(=O)(CCCOc1ccc(F)cc1)NCC1CCCO1` (centres undefined), the figure is 763 s; as for `O=C(NCC1CCCCC1)C1CCCN(c2nnc3ccc(Cl)cn23)C1` (centres undefined), 839 s; as for `COc1ccc(-n2ccnc(NC(=O)Nc3ccccc3)c2=O)cc1OC`, 829 s.
`Cc1ccc(CNC(=O)COc2ccccc2-c2nnc(-c3ccccc3)o2)o1` displayed an RP-LC retention time of 1040 s.
Regarding `CC1CCN(CCCNC(=O)C2(O)c3ccccc3NC(=O)N2c2ccc(Cl)cc2)CC1` (centres undefined), the RP-LC retention time came out at 582 s.
